Columns and labels:
Assay in all cases: Dose response test, growth in 96-well plates
Assay type in all cases: cell-based, Chlorella fusca
Cf-496-28 = settings: strain Cf-496-28 (V276A); no growth, visual inspection
Protocol: (§1) Dose response tests with B5U were set-up in 96-well, flat bottomed plates. 200 μl medium was used in each well. 2 μl of 6 day old culture was added to each well, then 2 μl of DMSO or dilution of test compound were added to respective wells. 2-fold dilutions starting at 100 ppm were used per well. Plates were incubated at 25° C., 50 μmol/m^2/s, 16 hour photoperiod.
(§2) This was assessed by a visual inspection of growth in the 96-well plate. The inhibitor concentration at which no growth is observed is then defined as the LD.
(§3) Starting dose was 100 ppm and decreasing with 2-fold dilutions with C. fusca wt, the five HST mutants and the 10 compounds to which the wt is sensitive. Plates were incubated at 25° C., 50 μmol/m2/s, 16 hour photoperiod.

Cf-496-19 = settings: strain Cf-496-19 (F275I); no growth, visual inspection
Protocol: as §1, §2, §3

Cf-496-8 = settings: strain Cf-496-8 (M278L & F279I); no growth, visual inspection
Protocol: as §1, §2, §3

Cf-496-15 = settings: strain Cf-496-15 (T277N); no growth, visual inspection
Protocol: as §1, §2, §3

Cf WT = settings: strain Cf WT; concentration at which no growth is observed, visual inspection
Protocol: as §1, §2, §3

Cf-496-94 = settings: strain Cf-496-94 (F275L); no growth, visual inspection
Protocol: as §1, §2, §3

Cf-496-6 = settings: strain Cf-496-6; no growth, visual inspection
Cf-496-75 = settings: strain Cf-496-75; no growth, visual inspection
Cf-496-82 = settings: strain Cf-496-82; no growth, visual inspection
Protocol: as §1, §2

Cf-496-51 = settings: strain Cf-496-51 (F275I); no growth, visual inspection
Protocol: as §1, §2

Cf-496-88 = settings: strain Cf-496-88; no growth, visual inspection
Protocol: as §1, §2

Cf-496-78 = settings: strain Cf-496-78 (F275I); no growth, visual inspection
Protocol: as §1, §2

Cf-496-97 = settings: strain Cf-496-97; no growth, visual inspection
Protocol: as §1, §2

Cf-496-54 = settings: strain Cf-496-54; no growth, visual inspection
Protocol: as §1, §2

Cf-496-65 = settings: strain Cf-496-65; no growth, visual inspection
Protocol: as §1, §2

Cf-496-13 = settings: strain Cf-496-13; no growth, visual inspection
Protocol: as §1, §2

Cf-496-21 = settings: strain Cf-496-21; no growth, visual inspection
Protocol: as §1, §2

Cf-496-85 = settings: strain Cf-496-85; no growth, visual inspection
Protocol: as §1, §2

Cf-496-90 = settings: strain Cf-496-90; no growth, visual inspection
Protocol: as §1, §2

Cf-496-35 = settings: strain Cf-496-35; no growth, visual inspection
Protocol: as §1, §2

SMILES: Cc1nn(C)c(=O)c(-c2c(F)ccc(Cl)c2CCc2ccc(C(F)(F)F)cc2)c1OC(=O)C(C)C [B5u, [5-[3-chloro-6-fluoro-2-[2-[4-(trifluoromethyl)phenyl]ethyl]phenyl]-1,3-dimethyl-6-oxo-pyridazin-4-yl]2-methylpropanoate]
- LD (lethal dose) (Cf-496-28): >100 ppm
- LD (lethal dose) (Cf-496-19): >100 ppm
- LD (lethal dose) (Cf-496-8): >100 ppm
- LD (lethal dose) (Cf-496-15): >100 ppm
- LD (lethal dose) (Cf WT): 6.25 ppm
- LD (lethal dose) (Cf-496-94): >100 ppm
- LD (lethal dose) (Cf-496-6): >100 ppm
- LD (lethal dose) (Cf-496-75): 6.25 ppm
- LD (lethal dose) (Cf-496-82): >100 ppm
- LD (lethal dose) (Cf-496-51): >100 ppm
- LD (lethal dose) (Cf-496-88): >100 ppm
- LD (lethal dose) (Cf-496-78): >100 ppm
- LD (lethal dose) (Cf-496-97): >100 ppm
- LD (lethal dose) (Cf-496-54): >100 ppm
- LD (lethal dose) (Cf-496-65): >100 ppm
- LD (lethal dose) (Cf-496-13): 6.25 ppm
- LD (lethal dose) (Cf-496-21): >100 ppm
- LD (lethal dose) (Cf-496-85): >100 ppm
- LD (lethal dose) (Cf-496-90): >100 ppm
- LD (lethal dose) (Cf-496-35): >100 ppm

From patent US20250304990A1, “HERBICIDE RESISTANCE” (SYNGENTA CROP PROTECTION AG, priority 2021, published 2025)
